Entries after “also recorded” stand apart in the source; their conditions may differ.
Molecular target: BSA (Bos taurus, UniProt P02769)
Assay: Interaction of ZincBY probes with proteins (BSA): emission, absorbance, polarization
Format: binding
Settings: for interaction with BSA (in words) / fluorescence turn-on in response to zinc in the presence of BSA / emission maximum in the presence of BSA: 10 mg/mL BSA; for fluorescence turn-on in response to zinc in the presence of BSA: holo vs apo; for polarization: apo and holo forms
Protocol: Aqueous solutions were prepared by using de-ionized water with resistivity […], obtained using a Milli-Q water purification system. In order to properly compare the photophysical properties of ZincBY-2, ZincBY-3, and ZincBY-4 to ZincBY-1, the photophysical properties of ZincBY-1 we remeasured. Tested values differed from the previously published values (Ref. B2; incorporated by reference in its entirety). It was determined that copper was present in the aqueous buffer used for in vitro analysis of the previous samples. The corrected values are used herein, utilizing buffers that are copper-free. Stock solutions of ZincBY-1, ZincBY-2, ZincBY-3, and ZincBY-4 were prepared at concentrations of 5 mM and stored at −20° C. in aliquots that were used immediately after thawing for each experiment. Unless otherwise stated, all spectroscopic methods were conducted in aqueous buffer containing 50 mM HEPES (pH 7.2) and 0.1 M KNO3. UV-visible spectra were acquired on a PerkinElmer Lambda 650 UV/Vis spectrophotometer using quartz cuvettes from Starna (1 cm path length, 10 cm path length used in extinction coefficient and quantum yield determination). Fluorescence spectra were acquired using a PerkinElmer LS 55 fluorescence spectrophotometer. For measurements containing zinc, 99.0% ZnNO3 hexahydrate (final concentration 5 μM) was used. For experiments analyzing apo probes, N,N,N′,N′-Tetrakis(2-pyridylmethyl)ethylenediamine (TPEN) (final concentration 5 μM) was added to solution. Quantum Yield and Extinction Coefficient Determination. Quantum yields for apo and holo ZincBY-1, ZincBY-2, ZincBY-3, and ZincBY-4 were determined by plotting absorbance vs. fluorescence intensity of solutions containing ZincBY-1, ZincBY-2, ZincBY-3, or ZincBY-4 at probe concentrations ranging from 50-250 nM. Serial dilution was used to make solutions at different concentrations. Fluorescein dissolved in 0.1 N NaOH was used as the quantum yield standard, using a literature-determined quantum yield of 0.95.^3 For all fluorophore solutions, fluorescence excitation was set at 490 nm and fluorescence emission was integrated from 510 nm to 650 nm. Zinc Dissociation Constant. Fluorescence spectra were recorded using zinc probes (ZincBY-1, ZincBY-2, ZincBY-3, or ZincBY-4; 200 nM) and ZnSO4 (various concentrations). The solutions were equilibrated in the dark for 1 h prior to measurement. The concentration of ZnSO4 was varied from 1 μM to 9 mM in buffer solution (50 mM HEPES and 0.1 M KNO3, and pH 7.2) containing 10 mM EGTA. Free Zn^2+ was calculated according to a previously reported method (Ref. B4; incorporated by reference in its entirety). Data was fit to the following one-site binding equation: F=(FminKd+Fmax[Zn^2+])/(Kd+[Zn^2+]) pH Response. The fluorescence spectra of zinc probes (ZincBY-2, ZincBY-3, or ZincBY-4; 200 nM) wasere measured at various pH values (4.5-11). The following buffers were used at 50 mM concentration with 0.1 M KNO3: NaOAc/AcOH (pH 4.0-4.5), MES (pH 5.0-6.5), HEPES (pH 7.0-8.0), CHES (pH 8.5-9.5), CAPS (pH 10.0-11.0). Metal Ion Response. The fluorescence spectra of zinc probes (ZincBY-2, ZincBY-3, or ZincBY-4; 200 nM) were measured in the presence an excess of metal ion including 1 mM KNO3, 1 mM NaNO3, 1 mM CaSO4, 1 mM MgSO4, 15 μM MnSO4, 15 μM (NH4)2Fe(SO4)2, 15 μM NH4Fe(SO4)2, 15 μM CoSO4, 15 μM NiSO4, 15 μM CuSO4, 15 μM [Cu(CH3CN)4]PF6, 15 μM CdSO4, 15 μM Hg(NO3)2, 15 μM Pb(NO3)2, or 15 μM ZnSO4. The fluorescence spectra were compared to that of ZincBY-2 (200 nM), ZincBY-3 (200 nM), or ZincBY-4 (200 nM) in the presence of 10 μM TPEN. Determination of octanol-water partition coefficients (log P). A log P value for each probe was determined by agitating nanomolar solutions of each probe in a 1:1 mixture of HEPES buffer and 1-octanol. Solutions were allowed to settle for 1 h and then the fluorescence intensity of each phase was measured. Standard curves of the fluorescence of known concentrations of probes in both solutions were used to determine concentrations. […]

Chain of BSA (P02769 25-607): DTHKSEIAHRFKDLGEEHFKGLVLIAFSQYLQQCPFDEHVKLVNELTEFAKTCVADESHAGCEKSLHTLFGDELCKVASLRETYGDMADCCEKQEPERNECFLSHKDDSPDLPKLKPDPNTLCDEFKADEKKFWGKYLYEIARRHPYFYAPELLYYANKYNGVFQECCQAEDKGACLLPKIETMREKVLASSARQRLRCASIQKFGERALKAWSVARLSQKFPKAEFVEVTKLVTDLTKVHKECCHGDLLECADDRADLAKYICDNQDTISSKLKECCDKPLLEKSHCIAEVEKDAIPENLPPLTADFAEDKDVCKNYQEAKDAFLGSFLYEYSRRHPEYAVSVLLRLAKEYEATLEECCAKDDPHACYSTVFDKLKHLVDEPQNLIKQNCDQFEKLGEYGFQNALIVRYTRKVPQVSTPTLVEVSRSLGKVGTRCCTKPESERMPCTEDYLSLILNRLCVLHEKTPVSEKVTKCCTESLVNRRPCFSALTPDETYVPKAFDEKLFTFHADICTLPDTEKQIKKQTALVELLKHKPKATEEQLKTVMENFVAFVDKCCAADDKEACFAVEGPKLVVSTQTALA

Structure (SMILES) | interaction with BSA (in words) | fluorescence turn-on in response to zinc in the presence of BSA | polarization (presence of excess BSA) | polarization (without BSA) | emission maximum in the presence of BSA (apo) [nm] | emission maximum in the presence of BSA (holo, excited at 480 nm) [nm]
COc1ccc2n1[B-](F)(F)[N+]1=C(N(CCN(Cc3ccccn3)Cc3ccccn3)Cc3ccccn3)C=CC1=C2c1c(C)cc(C)cc1C [ZincBY-1, reference compound] | The same interactions can be found | the fluorescence of apo-ZincBY-1 matches that of holo-ZincBY-1; also recorded: no fluorescence turn-on was observed | – | – | – | –
Cc1cc(C)c(C2=C3C=CC(OCCN=[N+]=[N-])=[N+]3[B-](F)(F)n3c2ccc3N(CCN(Cc2ccccn2)Cc2ccccn2)Cc2ccccn2)c(C)c1 [ZincBY-2, N1-(7-(2-azidoethoxy)-5,5-difluoro-10-mesityl-5H-4λ4,5λ4-dipyrrolo[1,2-c:2′,1′-f][1,3,2]diazaborinin-3-yl)-N1,N2,N2-tris(pyridin-2-ylmethyl)ethane-1,2-diamine] | The same interactions can be found | – | – | – | – | –
Cc1cc(C)c(C2=C3C=CC(OCCN)=[N+]3[B-](F)(F)n3c2ccc3N(CCN(Cc2ccccn2)Cc2ccccn2)Cc2ccccn2)c(C)c1 [ZincBY-3, N1-(7-(2-aminoethoxy)-5,5-difluoro-10-mesityl-5H-4λ4,5λ4-dipyrrolo[1,2-c:2′,1′-f][1,3,2]diazaborinin-3-yl)-N1,N2,N2-tris(pyridin-2-ylmethyl)ethane-1,2-diamine] | The same interactions can be found | – | – | – | – | –
CC(=O)NCCOc1ccc2n1[B-](F)(F)[N+]1=C(N(CCN(Cc3ccccn3)Cc3ccccn3)Cc3ccccn3)C=CC1=C2c1c(C)cc(C)cc1C [ZincBY-4, N-(2-((7-((2-(bis(pyridin-2-ylmethyl)amino)ethyl)(pyridin-2-ylmethyl)amino)-5,5-difluoro-10-mesityl-5H-5λ4,6λ4-dipyrrolo[1,2-c:2′,1′-f][1,3,2]diazaborinin-3-yl)oxy)ethyl)acetamide] | binds readily to the lipid transport protein | two-fold increase in fluorescence intensity over its apo form; also recorded: ca. two-fold | 0.37 | 0.03 | 590 | 575
